Experimental data: US20230088704A1, “A PHARMACEUTICAL COMBINATION FOR THE TREATMENT OF A CANCER” (ABILITY PHARMACEUTICALS S.L., priority 2020, published 2023)

Experiments:
[1] = test system: LA1-5S cells; experiment: Cell viability (crystal violet), ABTL0812 with temozolomide; assay type: cell-based; conditions: ABTL0812 40 μM + temozolomide 500, 1000, 1500 μM; 48 hours; 0.5% FBS
Procedure: (§1) Methods: LA1-5S and SK-N-BE(2) cells were incubated with increasing concentrations of temozolomide (500 μM, 1000 μM and 1500 μM), and subIC50 fixed concentrations of ABTL0812. (30 μM for SK-N-BE(2) and 40 μM for LA1-5S). Cells were treated for 48 hours in IMDM with 0.5% FBS. Cell viability was evaluated by crystal violet assay. Different doses were assessed in six replicates and the results shown are the average of two independent experiments. Statistical analyses were performed according to the T-Test principle with GraphPad Prism® 5.0 software.

[2] = test system: SK-N-BE(2) cells; experiment: as above; assay type: cell-based; conditions: ABTL0812 30 μM + temozolomide 500, 1000, 1500 μM; 48 hours; 0.5% FBS
Procedure: as §1

[3] = test system: JJN-3 cells; experiment: Cell viability (MTT) and combination index, ABTL0812 with bortezomib; assay type: cell-based; conditions: ABTL0812 5 μM, Bortezomib 0.5 nM, alone or combined; 48h
Procedure: (§2) Methods: JJN-3 and OPM2 cells were seeded in 24-well plates and treated with ABTL0812 (5 μM), bortezomib (0.5 and 1 nM respectively) or a combination of both drugs and left in the incubator for 48h (0.5% FBS). Cell viability was studied by the MTT assay and combination index was determined to evaluate a possible synergism.
(§3) Cell viability was evaluated in all cases by MTT assay and the Combination Index (CI), to evaluate synergism, was calculated according to the method of Chou and Talalay (Chou 2006; Chou 2010), as follows: CI=(D)1/(Dx)1+(D)2/(Dx)2, where CI<1, =1, and >1 indicate synergism, additive effect, and antagonism, respectively. In the denominator, (Dx)1 is for D1 “alone” that inhibits a system x %, and (Dx)2 is for D2 “alone” that inhibits a system x %.

[4] = test system: OPM2 cells; experiment: as above; assay type: cell-based; conditions: ABTL0812 5 μM, Bortezomib 1 nM, alone or combined; 48h
Procedure: as §2, §3

[5] = test system: T98G cells; experiment: Human glioblastoma subcutaneous xenograft, ABTL0812 with radiotherapy; assay type: in vivo, nude mice
Procedure: (§4) Methods: Mice were injected subcutaneously with 1×10^6 U87MG or T98G cells in each flank to induce tumor formation. […] ABTL0812 was administered orally at 240 mg/kg 5 days/week and radiotherapy as single dose of 4 Gy administered at day 3.

[6] = test system: U87MG cells; experiment: as above; assay type: in vivo, nude mice
Procedure: as §4

[7] = test system: PDL1; experiment: PDL1 expression in cancer cells by flow cytometry (Example 6.2); assay type: cell-based, human; conditions: ABTL0812 100 μM, 48 hours
Procedure: Methods: Human cancer cell lines were incubated with 100 μM of ABTL0812 during 48 hours and collected for staining with anti-PDL1 antibody labeled with a fluorophore. After staining of cells with anti-PDL1 antibody, cells were run on Flow Cytometry (Facs Canto) to analyzed PDL1 levels in cancer cells. Additionally, we incubated Panc-1 cells with ABTL0812 (50 μM), IFNγ (2.5 ng/ml), a master regulator of PDL1 expression or a combination with both. Then, cells were collected, stained with anti-PDL1 antibody and analyzed by Flow Cytometry for the expression of PDL1.

[8] = test system: Human pancreatic cancer cells; experiment: Immunogenic cell death (ICD) hallmarks; assay type: cell-based; conditions: ABTL0812 0 to 150 μM; 24 hours
Procedure: Methods: Human pancreatic cancer cells were treated with increasing concentrations of ABTL0812 (ranging from 0 to 150 μM) for 24 hours, and ICD hallmarks extracellular Hmgb1 and ATP, surface Calreticulin, and caspases 3 and 8 activation, were evaluated by ELISA (Hmgb1 and ATP), flow cytometry (Calreticulin) and immunoblotting (Caspases 3 and 8). For extracellular Hmgb1 and ATP, culture media from ABTL0812 treated cells were collected and incubated with specific antibodies for further detection using colorimetric assay. For surface Calreticulin, cancer cells were collected and incubated with specific antibody for further detection using flow cytometry. For Caspase 3 and 8 activation, cancer cells were collected, protein lysate obtained, incubated with specific antibodies for further detection using immunoblotting and finally quantified using densitometry.

[9] = test system: endometrial carcinogenesis induced by the deletion of PTEN; experiment: Endometrial carcinogenesis induced by PTEN deletion; assay type: in vivo, mice; conditions: ABTL0812 120 mg/kg daily during 3 weeks
Procedure: Methods: Mice were injected with tamoxifen to induce PTEN deletion. Three weeks after tamoxifen administration, when animal has developed hyperplasias, animals were administered with ABTL0812 at 120 mg/kg daily or with vehicle during 3 weeks. At that time, vehicle treated animals (6 weeks after tamoxifen injection) develop neoplasias, which are quantified by immunohistochemistry of extracted uterus. After ABTL0812 treatment, animals were sacrificed, uterus extracted in paraffin-embedded for further immunohistochemical analysis by hematoxylin-eosin staining for carcinogenesis evaluation or with anti-CD3 to evaluate T lymphocyte infiltration within tumoral lesions, indicative of tumor microenvironment immunomodulation.

[10] = test system: MT5 cells; experiment: Syngeneic pancreatic cancer model, ABTL0812 vs anti-PD1; assay type: in vivo, C57BL6 mice
Procedure: Methods: MT5 cells are a highly tumorigenic murine cell line mutated in KRAS and p53 initially derived from the pancreas of triple transgenic KRAS-p53-Cre (KPC) mice, carrying pancreatic duc-tal adenocarcinoma. […] C57BL6 mice were injected with 2×10^6 MT5 cells in one flank to induce tumor formation. […] The treatment groups were Vehicle, ABTL0812 and anti-PD1. ABTL0812 was administered by the oral route at 480 mg/kg/day. Anti-PD1 antibody was administered i.p. at 200 μg/dose every three days. Tumor volume and body weight were monitored 3 times a week. At the end of the treatments, mice were euthanized, tumors collected and single cell suspension was obtained by digesting tumors using digestion media containing collagenase and lipase and further processing with trypsin and DNAse. Additionally, spleens from treated mice were collected, minced using a strainer, and single cells were obtained after treatment with trypsin and DNAse. After cell suspensions were obtained, cancer cells and immune cells infiltrated withing tumors were stained using specific antibodies against different immune cell subsets and further analyzed using flow cytometry. The combinations used were: Th1 cells=CD45+ CD4+ CCR4− CXCR3+, Th2 cells=CD45+ CD4+ CCR4+ CXCR3−, Myeloid cells=CD45+ CD11b+ Ly6C+ and NKs cells=CD45+ NK1.1+.

[11] = ABTL0812 oral 240 mg/kg 5 days/week
[12] = ABTL0812 oral 240 mg/kg 5 days/week + radiotherapy single dose 4 Gy at day 3

CCCCC/C=C\C/C=C\CCCCCCC(O)C(=O)O (stereo not drawn) [ABTL0812, COOH—CHOH—(CH2)6—(CH═CH—CH2)2—(CH2)3—CH3]
temozolomide cytotoxicity on addition of ABTL0812 [1]: increased temozolomide cytotoxicity
temozolomide cytotoxicity on addition of ABTL0812 [2]: increased temozolomide cytotoxicity
cell death [3]: around 10%
cell death [4]: around 20%
growth of subcutaneous tumors, single agent [5, 11]: significantly decreased the growth of glioblastoma subcutaneous tumors
growth of subcutaneous tumors, combination with radiotherapy [5, 12]: significantly more efficacious than ABTL0812 or radiotherapy as single treatments
growth of subcutaneous tumors, single agent [6, 11]: significantly decreased the growth of glioblastoma subcutaneous tumors
growth of subcutaneous tumors, combination with radiotherapy [6, 12]: significantly more efficacious than ABTL0812 or radiotherapy as single treatments
PDL1 expression, increase from basal levels ([7]; Capan-2 cells): 86%
PDL1 expression, increase from basal levels ([7]; MiaPaca2 cells): 34%
Caspase 3 and 8 activation [8]: dose dependent increase
extracellular ATP [8]: dose dependent increase
extracellular Hmgb1 [8]: dose dependent increase
surface Calreticulin [8]: dose dependent increase
development of endometrial intraepithelial neoplasias (EIN) [9]: significant reduction in the development of endometrial intraepithelial neoplasias
CD3 T lymphocyte infiltration ([9]; anti-CD3 immunohistochemistry): induce the infiltration of CD3 T lymphocytes within tumoral lesions
animals with hyperplasias ([9]; hematoxylin-eosin staining): 80%
tumor volume ([10]; ABTL0812 oral 480 mg/kg/day, anti-PD1 i.p. 200 μg/dose every three days): significantly decreasing tumor volume compared with vehicle treatment group
Th1/Th2 ratio in spleen ([10]; flow cytometry): increase in the Th1/Th2 ratio
Myeloid cells within tumors ([10]; flow cytometry, CD45+ CD11b+ Ly6C+): increase of Myeloid cells within tumors
percentage of NK cells within tumor ([10]; flow cytometry, CD45+ NK1.1+): increase in the percentage of NK cells within tumor
